The structures appear in SMILES notation. Results filed as inconclusive are left out. The source made the active and inactive calls. How the calls were made is not given here.

In the assay the test system is EBV lymphoblastoid cells (LCL) viability, plate reader. The experiment in a line: LCL viability reduction – cell-based, plate reader, cherry-picks, set 2, cytotoxicity control, dose response (AID 504882).
Usually AC50 stands for the midpoint of the concentration-response curve, whichever way the signal moves. On to `COc1cccc(/C=N/Nc2nccnc2Cl)c1O`, for which the AC50 is 3.86 µM.

Regarding `CCC(=O)NC(c1cc(Cl)c2cccnc2c1O)C(C)C` (stereo not drawn), the concentration at half-maximal activity (AC50) is 6.78 µM.

Consider `CC(=NNC(=S)Nc1ccc(C)cc1)c1ccccn1`, for which the concentration at half-maximal activity (AC50) was 0.269 µM.

On to `CCNC(=S)NNC(=O)c1cc(-c2ccc(OCC)cc2)nc2ccccc12`, for which the AC50 is 7.85 µM.

As for `Cc1cc(Sc2nnc(/N=C/N(C)C)s2)c2ccccc2n1`, the half-maximal activity concentration (AC50) is 9.16 µM.

With `CN1C(=O)N(C)c2ccc(C=O)c3cccc1c23`, the concentration at half-maximal activity (AC50) was 5.99 µM.

Regarding `C(=Cc1cnc2ccccc2n1)c1ccc2c(c1)OCO2`, the AC50 was 6.12 µM.

On to `O=[N+]([O-])c1c(Nc2cccc(O)c2)cc(Cl)c2nonc12`, for which the AC50 was 2.73 µM.

Regarding `CCc1ccc(Nc2n[n+](-c3ccccc3)c(-c3c(Cl)cccc3Cl)s2)cc1`, the AC50 was 15 µM.

For the compound `CN1CCN(/N=C/c2ccc(N(c3ccccc3)c3ccccc3)cc2)CC1`, the AC50 is 0.354 µM.

With `Clc1ccc(-n2nnnc2Sc2ncnc3sccc23)cc1`, the AC50 is 8.53 µM.

For `CCn1c2ccccc2c2cc(/C=N/n3cn[nH]c3=S)ccc21`, the concentration at half-maximal activity (AC50) is 3.79 µM.

In the case of `CC(=NNc1nc2ccccc2o1)c1ncccn1`, the AC50 is 0.384 µM.

Take `CC(=O)NC(c1ccc2ccccc2c1)c1ccc2cccnc2c1O` (stereo not drawn): the concentration at half-maximal activity (AC50) was 1.93 µM.

Take `CCCC(=O)NC(c1cccc([N+](=O)[O-])c1)c1ccc2cccnc2c1O` (stereo not drawn): the concentration at half-maximal activity (AC50) is 3.51 µM.

On to `NC(=S)N/N=C/c1ncc(C(F)(F)F)cc1Cl`, for which the half-maximal activity concentration (AC50) was 10.6 µM.

Take `COc1ccccc1-c1nc(-c2ccccn2)no1`: the half-maximal activity concentration (AC50) is 10.8 µM.

As to `CCc1sc(C(=O)Nc2nc(-c3ccccn3)cs2)cc1C`, the concentration at half-maximal activity (AC50) is 7.43 µM.

Regarding `COc1ccccc1[C@]1(C)ON(c2ccccc2C(F)(F)F)C1=O`, the AC50 was 16.7 µM.

On to `CCOc1cccc(/C=N/Nc2ccc(S(=O)(=O)N(CC)CC)cn2)c1O`, for which the AC50 is 1.79 µM.

`O=c1cc(-c2ccccc2)oc2ccc3ccccc3c12`: the AC50 was 8.53 µM.

Consider `COc1cccc(N=Nc2ccc(O)c3ncccc23)c1`, for which the AC50 is 2.18 µM.

On to `CC(=NNC(=S)N1CC2CCC(CC2)C1)c1nccs1`, for which the concentration at half-maximal activity (AC50) is 0.362 µM.

`C#Cc1cc(N2CCN(C(=O)c3ccoc3)CC2)n2nc(-c3cccc(Cl)c3)cc2n1`: the AC50 is 10.4 µM.

`Cc1c(C(=O)Nc2nc(-c3ccccn3)cs2)oc2ccccc12`: the AC50 is 11 µM.

As for `CCOc1ccc(C(C)=O)cc1COc1cccnc1[N+](=O)[O-]`, the AC50 is > 19.5 µM (inactive).

Consider `CCOC(=O)c1c(CSc2nc(C)cc(C)c2C#N)n(C)c2cc(Br)c(OC(C)=O)cc12`, for which the half-maximal activity concentration (AC50) was 14.6 µM.

`NC(=S)NN=Cc1nccc2c(N)cccc12`: the AC50 is 1.04 µM.

Consider `O=C(/C=C1\NC2(CCCC2)Cc2ccccc21)C(=O)N/N=C/c1ccccc1O`, for which the half-maximal activity concentration (AC50) was 18 µM.

In the case of `Cc1oc2c(c1C(=O)c1ccc(Cl)cc1)C(=O)C(=O)c1ccccc1-2`, the AC50 was 5.51 µM.

With `CCOc1ccc(/C=C/[N+](=O)[O-])c2ccccc12`, the AC50 is 1.92 µM.

Take `O=C(Nc1nnc(SCc2ccc(F)cc2)s1)c1ccccn1`: the AC50 was 14.1 µM.

As for `O=C(NC(c1ccc(Cl)cc1)c1cc(Cl)c2cccnc2c1O)c1cccnc1` (stereo not drawn), the concentration at half-maximal activity (AC50) is 4.72 µM.

As to `NC(=S)NN=Cc1nccc2c(C(F)(F)C(F)(F)C(F)(F)F)cccc12`, the AC50 was 0.452 µM.

As to `Cc1cc(C)nc(SCc2ccc(C(=O)N/N=C/c3cccc(O)c3O)cc2)n1`, the AC50 is 10.9 µM.

On to `c1ccc(C(=NNc2nc3ccccc3s2)c2ccccn2)cc1`, for which the AC50 is 1.06 µM.

In the case of `CCN1CCN(Cc2ccc(NC(=O)c3ccc(C)c(NC(=O)c4c[nH]c5cc(C(F)(F)F)ccc5c4=O)c3)cc2C(F)(F)F)CC1`, the AC50 was 3.95 µM.

Take `COc1ccccc1N(C(C)=O)C1=C(Cl)C(=O)c2ccccc2C1=O`: the AC50 was 2.59 µM.

As for `COc1ccc2[nH]c(C(=O)N/N=C/c3ccc(O)cc3O)cc2c1`, the half-maximal activity concentration (AC50) was 16 µM.

With `O=C(/C=C/c1ccco1)Oc1cc(Br)cc(/C=N/NC(=O)c2ccccc2O)c1`, the half-maximal activity concentration (AC50) is 6.29 µM.

With `CCn1c2ccccc2c2cc(/C=N/NC(=O)c3ccncc3)ccc21`, the AC50 is 3.31 µM.

`S=C1SCN(Cc2ccco2)CN1Cc1ccco1`: the AC50 is 15.8 µM.

Turning to `COc1ccccc1/C=C/C(=O)c1ccc(Cl)cc1`, the AC50 was > 19.5 µM (inactive).

Take `N#CC(C#N)=NNc1ccc(-n2ccc(C(F)(F)F)n2)cc1`: the AC50 was 2.53 µM.

With `CC(=NNC(=S)N1CCCC1)c1ccccn1`, the AC50 was 0.037 µM.

On to `O=C(Nc1nc(-c2ccccn2)cs1)c1ccc(Cl)s1`, for which the AC50 was 1.34 µM.

For `COc1ccccc1-c1nnc(Sc2nc([N+](=O)[O-])nn2C)o1`, the concentration at half-maximal activity (AC50) was 8.25 µM.

Turning to `C(=N\Nc1nc2ccccc2[nH]1)/c1cccc2cccnc12`, the AC50 is 1.06 µM.

`O=C(N/N=C/c1c(O)ccc2ccccc12)c1cccnc1`: the half-maximal activity concentration (AC50) is 10.5 µM.

For the compound `C#CCN(C[C@@H]1[C@@H](OC(=O)NCCCCCC)[C@@H](OC(=O)NCCCCCC)Cn2c(=O)ccc(=O)n21)S(=O)(=O)c1ccc(C)cc1`, the AC50 is 3.98 µM.

Take `CCN1CCN(Cc2ccc(NC(=O)c3ccc(C)c(/C=C/c4cnc(Nc5cc(N6CCNCC6)nc(C)n5)cn4)c3)cc2C(F)(F)F)CC1`: the concentration at half-maximal activity (AC50) is 9.23 µM.

For the compound `CCNc1ccc(Br)cc(C(=O)/C=C/c2c(Cl)cccc2Cl)c1=O`, the AC50 was 13.8 µM.

Turning to `O=c1c2c(nc3c(-c4cccc(Br)c4)c[nH]n13)CCCC2`, the AC50 was 11 µM.

In the case of `CC(=NNc1nc2ccccc2s1)c1ncccn1`, the AC50 was 10.2 µM.

Regarding `Cc1ccc(C(=O)N/N=C/c2c(O)ccc3ccccc23)cn1`, the half-maximal activity concentration (AC50) was 17 µM.

With `COc1ccc(C(=O)NC(=S)NNC(=O)c2ccc3ccccc3n2)cc1`, the half-maximal activity concentration (AC50) was 3.69 µM.

Take `Cc1csc(N=Nc2ccc(N(C)C)cc2)[n+]1[O-]`: the AC50 was 7.33 µM.

With `Cc1[nH]n(-c2ccccc2)c(=O)c1/C=N/Nc1nncc(-c2ccccc2)n1`, the AC50 was 0.83 µM.

On to `Oc1ccc(C=NNC(=S)Nc2ccccc2)nc1`, for which the half-maximal activity concentration (AC50) is 13 µM.

`CCn1c2ccccc2c2cc(/C=N/n3c(-c4cc(C)[nH]n4)n[nH]c3=S)ccc21`: the AC50 is 6.59 µM.

As to `S=C(NCCCN1CCOCC1)N1CCN(c2nc(-c3ccc(Cl)cc3)cs2)CC1`, the AC50 was 12.9 µM.

Turning to `Cn1c(/C=C/c2ccccc2)nc2ccccc21`, the AC50 was 13.9 µM.

`CCN(CC)c1ccc(/C=N/Nc2nc3ccccc3[nH]2)c(O)c1`: the concentration at half-maximal activity (AC50) was 2.74 µM.

With `CCN(CC)S(=O)(=O)c1cccc(NC(=O)Nc2cccc(C(F)(F)F)c2)c1`, the AC50 is 9.7 µM.

On to `CCC(=O)NC(c1cc(Cl)c2cccnc2c1O)C1CC1` (stereo not drawn), for which the half-maximal activity concentration (AC50) was 6.08 µM.

As to `COc1ccc(-c2ccc(NC(=O)c3ccco3)cc2)nn1`, the half-maximal activity concentration (AC50) was 4.42 µM.

Turning to `CNc1cccnc1C=NNC(N)=S`, the AC50 is 7.97 µM.

For the compound `CC(=O)Nc1nc(C)c(-c2csc(Nc3ccc(O)cc3)n2)s1`, the AC50 is 19.4 µM.

In the case of `N#Cc1c(Oc2ccc3ccccc3c2)sc(C(=O)c2ccccc2)c1N`, the half-maximal activity concentration (AC50) was 20 µM.

Consider `CCN(CC)c1ccc(/C=N/NC(=O)c2cnccn2)c(O)c1`, for which the half-maximal activity concentration (AC50) was 3.23 µM.

For the compound `CC(=NNC(=S)N1CCN(c2ccccn2)CC1)c1nccs1`, the half-maximal activity concentration (AC50) was 0.429 µM.

For the compound `COc1ccc(-n2nc(C(=O)c3cccs3)cc(-c3nc4ccccc4[nH]3)c2=N)cc1`, the AC50 is 8.9 µM.

Regarding `COc1ccc(Cn2c(SCc3cc(C)ccc3C)nc3cc(OC)c(OC)cc3c2=N)cc1`, the AC50 was 6.5 µM.

These data come from PubChem BioAssay AID504882 (Broad Institute, 2011).
